Data taken from paper PMC9147192, “Small Molecule Arranged Thermal Proximity Coaggregation (smarTPCA)—A Novel Approach to Characterize Protein–Protein Interactions in Living Cells by Similar Isothermal Dose–Responses” (International Journal of Molecular Sciences, 2022).
Values joined by “and” are separate entries in the source; they are usually repeats but may differ in a detail not shown here. Equal values may be shown once. Read-outs that look alike come from different tables or passages of the source.

Experiments:
GSK-3α = molecular target: T1, GSK-3α (Homo sapiens, UniProt P49840); test: CETSA in living HL-60 cells, immunoblot; assay type: cell-based
T1 construct: parallel detection of MAPK14, MAPKAPK2, MAPKAPK3, and GSK-3α; endogenous in cells; host or cells: HL-60 (ATCC CCL-240), living cells or cell extract
T1 sequence (P49840 whole entry): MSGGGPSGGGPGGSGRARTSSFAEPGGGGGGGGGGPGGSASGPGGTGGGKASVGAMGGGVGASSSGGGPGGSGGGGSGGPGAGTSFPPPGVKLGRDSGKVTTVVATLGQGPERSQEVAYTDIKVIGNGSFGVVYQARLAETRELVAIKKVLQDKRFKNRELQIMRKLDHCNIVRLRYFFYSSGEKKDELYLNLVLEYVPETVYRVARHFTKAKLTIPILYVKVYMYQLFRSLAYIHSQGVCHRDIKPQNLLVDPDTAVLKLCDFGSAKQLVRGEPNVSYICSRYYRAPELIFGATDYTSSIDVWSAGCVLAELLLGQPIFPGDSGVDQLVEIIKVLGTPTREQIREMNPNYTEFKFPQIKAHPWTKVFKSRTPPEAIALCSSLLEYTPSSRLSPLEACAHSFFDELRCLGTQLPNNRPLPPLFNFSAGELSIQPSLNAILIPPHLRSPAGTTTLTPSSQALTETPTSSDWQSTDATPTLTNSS
Experimental: (§1) First, we conducted CETSA experiments according to Jafari et al.. […] Subsequent SDS-PAGE and immunoblotting were performed according to optimized conditions allowing for parallel detection of MAPK14, MAPKAPK2, MAPKAPK3, and GSK-3α (Supplementary Figure S1).
(§2) HL-60 cells (ATCC No. CCL-240) were expanded to about […] in 80 mL cell culture medium (RPMI-1640 supplemented with 10% (v/v) FBS, 1% (v/v) penicillin-streptomycin and 1% (v/v) L-glutamine solution) and divided into four aliquots (20 mL each, 25 million cells per flask). […] The same volume of DMSO was added to the remaining aliquot serving as the vehicle (DMSO) control. After incubation (1 h, 37 °C, 5% CO2, in cell culture CO2 incubator), the cell suspensions were transferred into 50 mL conical tubes, cell number and viability were determined, and after centrifugation (300 relative centrifugal force (rcf), 3 min, room temperature (r.t.)), the supernatants were completely removed and discarded. The cells were washed using 20 mL Dulbecco’s phosphate-buffered saline (PBS), respectively, by resuspension and centrifugation (300 rcf, 3 min, r.t.). After the complete removal of the supernatants, the cells were transferred into pre-weighed 2 mL Eppendorf tubes using 0.5 mL PBS (r.t.), respectively, for resuspending. After centrifugation (300 rcf, 3 min, r.t.) and removing as much as possible of the supernatants, the cell wet weights were determined.
(§3) The suspensions were shortly centrifuged (1 s or less) using a benchtop centrifuge that was equipped with an inset for PCR tubes to release trapped air and to achieve an even liquid level without pelleting the cells. The 100 µL cell suspensions were then temperature treated by a 7 min pre-incubation at r.t., a 3 min incubation at the following different temperatures in the PCR cycler (DNA Engine Tetrad 2, lid temperature 70 °C, gradient block 1: 36–55 °C, gradient block 2: 48–67 °C), and a 3 min post-incubation at r.t. in a metal heating block for uniform heat dissipation.
(§4) The cells were lysed by four freeze/thaw cycles consisting of thawing the samples (in a heat block set to 25 °C and shaking at 1250 rpm) accompanied by mixing them several times by inversion and then shock freezing them again in liquid nitrogen. The resulting lysates were kept cold (on ice or 4 °C) from then on. After centrifugation (20,000 rcf, 30 min, 4 °C) to pellet the cell debris together with precipitated and aggregated proteins, the supernatants were recovered and, after determining the total protein concentration (Pierce 660 nm Protein Assay, BSA as standard), the resulting cell extracts containing the fraction of soluble, non-denatured proteins were shock frozen in liquid nitrogen and stored at −80 °C.
(§5) For each sample set comprising either ten temperature range samples or ten compound concentration range samples, the same volume of the cell extracts containing the fraction of soluble, non-denatured proteins was used for further analysis. This volume was determined using the two lowest temperature samples (36.5 and 41.2 °C) per temperature range sample set so that they contained an average of 5 µg total protein (e.g., 2.78 µL for all temperature range samples of a sample set whose two lowest temperature samples contain an average of 1.8 mg/mL protein). For the compound concentration range experiments, all samples of a set were used for averaging.

MAPKAPK2 = MAPKAPK2 (Homo sapiens, UniProt P49137); test: CETSA in living HL-60 cells, immunoblot; assay type: cell-based; settings: for Top: top plateau of melting curve fit
MAPKAPK2, sequence (P49137 whole entry): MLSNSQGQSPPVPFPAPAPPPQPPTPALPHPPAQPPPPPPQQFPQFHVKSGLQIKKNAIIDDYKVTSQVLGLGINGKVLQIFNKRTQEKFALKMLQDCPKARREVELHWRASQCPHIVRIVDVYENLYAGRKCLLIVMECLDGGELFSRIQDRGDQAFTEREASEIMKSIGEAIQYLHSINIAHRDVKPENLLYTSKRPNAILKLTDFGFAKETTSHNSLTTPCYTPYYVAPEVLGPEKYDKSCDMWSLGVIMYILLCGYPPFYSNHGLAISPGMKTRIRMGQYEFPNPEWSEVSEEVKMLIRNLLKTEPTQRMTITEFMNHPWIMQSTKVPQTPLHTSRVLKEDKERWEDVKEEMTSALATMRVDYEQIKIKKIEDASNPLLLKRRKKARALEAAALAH
Experimental: as §1, §2, §3, §4, §5

MAPKAPK3 = MAPKAPK3 (Homo sapiens, UniProt Q16644); test: CETSA in living HL-60 cells, immunoblot; assay type: cell-based
MAPKAPK3, sequence (Q16644 whole entry): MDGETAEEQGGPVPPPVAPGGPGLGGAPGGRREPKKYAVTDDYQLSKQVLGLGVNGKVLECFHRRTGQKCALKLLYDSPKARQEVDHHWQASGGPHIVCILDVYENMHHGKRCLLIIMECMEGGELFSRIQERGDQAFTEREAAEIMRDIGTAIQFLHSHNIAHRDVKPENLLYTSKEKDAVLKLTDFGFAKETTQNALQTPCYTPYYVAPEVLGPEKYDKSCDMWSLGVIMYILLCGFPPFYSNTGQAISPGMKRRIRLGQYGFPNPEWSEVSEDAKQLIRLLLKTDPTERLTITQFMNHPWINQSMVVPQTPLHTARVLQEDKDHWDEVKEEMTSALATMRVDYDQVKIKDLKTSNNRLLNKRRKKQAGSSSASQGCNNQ
Experimental: as §1, §2, §3, §4, §5

MAPK8 = MAPK8 (Homo sapiens, UniProt P45983); test: TPP-CCR in living HL-60 cells; settings: […] °C, TMT-MS
MAPK8, sequence (P45983 whole entry): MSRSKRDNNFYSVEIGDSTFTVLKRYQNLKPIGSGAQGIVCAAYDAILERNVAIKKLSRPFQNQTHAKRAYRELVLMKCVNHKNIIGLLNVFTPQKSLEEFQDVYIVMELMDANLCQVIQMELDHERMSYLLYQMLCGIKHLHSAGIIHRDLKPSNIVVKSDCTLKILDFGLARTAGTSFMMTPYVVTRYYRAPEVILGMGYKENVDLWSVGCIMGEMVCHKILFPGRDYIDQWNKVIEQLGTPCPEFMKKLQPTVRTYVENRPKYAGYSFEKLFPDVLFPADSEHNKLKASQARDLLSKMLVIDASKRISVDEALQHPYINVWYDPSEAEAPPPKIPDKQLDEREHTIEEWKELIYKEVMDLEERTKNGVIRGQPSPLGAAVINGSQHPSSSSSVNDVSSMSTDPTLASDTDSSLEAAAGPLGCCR

MAPKAPK2 phosphorylation = test: MAPKAPK2 phosphorylation-dependent electrophoretic mobility shift (PDEMS) immunoblot, living HL-60 cells; settings: 20 µM inhibitor
MAPK14 = tested on: MAPK14; design: method as in Jafari et al., Nat. Protoc. 2014; settings: MAPK14, living HL-60 cells, ref Jafari et al., Nat. Protoc. 2014, cited from earlier work
[1] = GSK-3α, living cells, immunoblot
[2] = living HL-60 cells, 20 µM inhibitor, immunoblot
[3] = living HL-60 cells, 20 µM inhibitor, immunoblot, read-out: ΔTm to DMSO (GSK-3α)
[4] = MAPKAPK3, living cells, immunoblot
[5] = MAPKAPK2, living cells, immunoblot
[6] = living HL-60 cells, 20 µM inhibitor, immunoblot, 20 µM

SMILES	Tm (GSK-3α; [1]) [°C]	ΔTm to DMSO (GSK-3α; [1]) [°C]	Tm (GSK-3α) (GSK-3α; [2]) [°C]	ΔTm at 20 µM (GSK-3α; [3]) [°C]	Top (MAPKAPK2; MAPKAPK2, living cells) [%]	Tm (MAPKAPK3; [4]) [°C]	Tm (MAPKAPK3) (MAPKAPK3; [2]) [°C]	Hill slope (MAPK8) (MAPK8)	MAPKAPK2 phosphorylation (band pattern, PDEMS) (MAPKAPK2 phosphorylation)	Tm (MAPKAPK2; [5]) [°C]	ΔTm to DMSO (MAPKAPK2; [5]) [°C]	Tm (MAPKAPK2) (MAPKAPK2; [2]) [°C]	ΔTm to DMSO (MAPKAPK2) (MAPKAPK2; [6])	ΔTm to DMSO (MAPKAPK3; [4]) [°C]	ΔTm to DMSO (MAPKAPK3) (MAPKAPK3; [6])	Tagg values (given as averages ± s.d.), AlphaScreen (MAPK14)	Tagg values (given as averages ± s.d.), Western blot (MAPK14)	ΔTm at 20 µM (GSK-3α; HL-60, read-out: ΔTm to DMSO (GSK-3α)) [°C]	ΔTm at 20 µM (MAPKAPK2; HL-60, read-out: ΔTm to DMSO (MAPKAPK2)) [°C]	ΔTm at 20 µM (MAPKAPK3; HL-60, read-out: ΔTm to DMSO (MAPKAPK3)) [°C]
C[S+]([O-])c1ccc(-c2nc(-c3ccncc3)c(-c3ccc(F)cc3)[nH]2)cc1 (stereo not drawn) [SB203580]	54.03	0.0529	54.03	0.05	87.0	51.56	51.56	0.44	inhibited apparent MAPKAPK2 phosphorylation											
Cn1c(NC[C@@H](N)Cc2ccccc2)nc(-c2ccncc2)c(-c2ccc3ccccc3c2)c1=O [AMG-548]	53.26		53.26	-0.71		54.68	54.68	0.24	inhibited apparent MAPKAPK2 phosphorylation	54.39	5.18	54.39	5.2 °C and 5.18 °C	6.62	6.6 °C and 6.62 °C	59.2 ± 0.9 °C	60.6 ± 1.0 °C			
Cc1cnc(Nc2ccc(F)cc2Cl)nc1-c1c[nH]c(C(=O)N[C@H](CO)c2cccc(Cl)c2)c1 [ERK 11e]	54.11		54.11		36.1				double band							no substantial response (same as DMSO)	no substantial response (same as DMSO)	0.14	-0.02	0.26
